Experiments:
[1] = target: T1, cholesterol ester transfer protein (CETP) (Homo sapiens, UniProt P11597); test: CETP inhibition test (transfer of 3H-cholesterol ester from human HDL to biotinylated LDL, SPA); format: biochemical; settings: 37° C., 18 h
T1 construct: CETP is obtained from human plasma in partially purified form; from tissue; host or cells: human plasma (partially purified in house by differential centrifugation and column chromatography)
T1 sequence (P11597 18-493): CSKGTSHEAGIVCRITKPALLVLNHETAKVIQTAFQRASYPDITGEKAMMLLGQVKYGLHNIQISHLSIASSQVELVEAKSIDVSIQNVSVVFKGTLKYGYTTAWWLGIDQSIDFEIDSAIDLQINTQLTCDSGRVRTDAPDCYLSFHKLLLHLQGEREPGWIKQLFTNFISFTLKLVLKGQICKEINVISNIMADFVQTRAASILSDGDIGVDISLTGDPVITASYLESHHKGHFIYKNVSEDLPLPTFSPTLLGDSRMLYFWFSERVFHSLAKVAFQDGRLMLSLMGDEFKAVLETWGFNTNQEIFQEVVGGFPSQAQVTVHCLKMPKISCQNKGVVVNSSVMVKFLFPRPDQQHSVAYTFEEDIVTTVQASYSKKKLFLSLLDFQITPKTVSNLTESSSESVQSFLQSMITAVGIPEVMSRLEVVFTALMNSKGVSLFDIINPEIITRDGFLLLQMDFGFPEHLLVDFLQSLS
Procedure: CETP is obtained from human plasma in partially purified form by differential centrifugation and column chromatography and used for the test. To this end, human plasma is adjusted to a density of 1.21 g per ml using NaBr and centrifuged at 4° C. for 18 h at 50,000 rpm. The bottom fraction (d>1.21 g/ml) is applied to a Sephadex®phenyl-sepharose 4B (Pharmacia) column, washed with 0.15 M NaCl/0.001 M tris HCl pH 7.4 and then eluted with distilled water. The CETP-active fractions are pooled, dialysed against 50 mM Na acetate pH 4.5 and applied to a CM-Sepharose® (Pharmacia) column. The column is then eluted using a linear gradient (0-1 M NaCl). The pooled CETP fractions are dialysed against 10 mM tris HCl pH 7.4 and then further purified by chromatography on a Mono Q® column (Pharmacia).
Obtainment of radiolabelled HDL
50 ml of fresh human EDTA plasma are adjusted to a density of 1.12 using NaBr and centrifuged at 50,000 rpm for 18 h at 4° C. in a Ty 65 rotor. The upper phase is used to obtain cold LDL. The lower phase is dialysed against 3×4 l of PDB buffer (10 mM tris/HCl pH 7.4, […], 1 mM EDTA, 0.02% NaN3). 20 μl of ^3 H-cholesterol (Dupont NET-725; 1 μC/μl dissolved in ethanol) are then added per 10 ml of retentate volume and the mixture is incubated under N2 at 37° C. for 72 h. […]
To test the CETP activity, the transfer of ^3 H-cholesterol ester from human HD lipoproteins to biotinylated LD lipoproteins is measured. The reaction is ended by addition of streptavidin-SPA®beads (Amersham) and the transferred radioactivity is determined directly in a liquid scintillation counter.
In the test mixture, 10 μl of HDL-^3 H-cholesterol ester (~50,000 cpm) are incubated at 37° C. for 18 h with 10 μl of biotin-LDL (Amersham) in 50 mM Hepes/0.15 M NaCl/0.1% bovine serum albumin/0.05% NaN3 pH 7.4 with 10 μl of CETP (1 mg/ml) and 3 μl of solution of the substance to be tested (dissolved in 10% DMSO/1% RSA). 200 μl of the SPA-streptavidin bead solution (TRKQ 7005) are then added, the mixture is incubated further for 1 h with shaking and then measured in the scintillation counter. […]

CETP = test: Ex vivo activity: CETP activity in serum of treated Syrian golden hamsters; settings: ex vivo CETP activity in hamster serum; for ED50 (ex vivo activity): up to 24 hours after administration
Procedure: Ex vivo activity of the compounds according to the invention
Syrian golden hamsters from in-house breeding are anaesthetized after fasting for 24 hours (0.8 mg/kg of atropine, 0.8 mg/kg of Ketavet® s.c., 30' later 50 mg/kg of Nembutal i.p.). The jugular vein is then exposed and cannulated. The test substance is dissolved in a suitable solvent (as a rule Adalat placebo solution: 60 g of glycerol, 100 ml of H2 O, PEG-400 to 1000 ml) and administered to the animals via a PE catheter inserted in the jugular vein. The control animals receive the same volume of solvent without test substance. The vein is then tied off and the wound is closed.
The administration of the test substances can also be carried out p.o., by orally administering the substances dissolved in DMSO and suspended in 0.5% Tylose by means of a stomach tube. The control animals receive identical volumes of solvent without test substance.
After various times--up to 24 hours after administration--blood (about 250 μl) is taken from the animals by puncture of the retro-orbital venous plexus. Clotting is ended by incubation at 4° C. overnight, then centrifugation is carried out at 6000×g for 10 minutes. In the serum thus obtained, CETP activity is determined by the modified CETP test. As for the CETP test described above, the transfer of ^3 H-cholesterol ester from HD lipoproteins to biotinylated LD lipoproteins is measured.
The reaction is ended by addition of Streptavidin-SPA®beads (Amersham) and the transferred radioactivity is determined directly in the liquid scintillation counter.
The test mixture is carried out as described under "CETP test". For the testing of the serum, only 10 μl of CETP are replaced by 10 μl of the corresponding serum samples. As controls, corresponding incubations with sera of untreated animals are used.
The activity transferred in the control mixtures with control sera is rated as 100% transfer. The substance concentration at which this transfer is reduced to a half is indicated as the ED50 value.

[2] = In vivo activity in transgenic hCETP mice (change in HDL, LDL, triglycerides); settings: 80 ppm in the feed, one week
Procedure: In vivo activity in transgenic hCETP mice
Transgenic mice from in-house breeding (Dinchuck, Hart, Gonzalez Karmann Schmidt, Wirak; BBA (1995), 1295, 301) were administered the substances to be tested in the feed. Before the start of the experiment, blood was taken retro-orbitally from the mice in order to determine cholesterol and triglycerides in the serum. The serum was obtained as described above for hamsters by incubation at 4° C. overnight and subsequent centrifugation at 6000×g. After one week, blood was again taken from the mice in order to determine lipoproteins and triglycerides. The change in the parameters measured is expressed as a percentage change compared with the starting value.

[3] = In vivo activity: oral action on lipoproteins and triglycerides in Syrian golden hamsters (HDL rise); settings: dose 2 × 3 mg/kg, hamster, up to 24 hours after administration
Procedure: In vivo activity of the compounds according to the invention
In experiments to determine the oral action on lipoproteins and triglycerides, test substance dissolved in DMSO and 0.5% Tylose suspended by means of a stomach tube are administered orally to Syrian golden hamsters from in-house breeding. To determine the CETP activity, blood (about 250 μl) is taken by retro-orbital puncture before the start of the experiment. The test substances are then administered orally by means of a stomach tube. The control animals receive identical volumes of solvent without test substance. […]
Clotting is ended by incubation at 4° C. overnight, then centrifugation at 6000×g is carried out for 10 minutes. In the serum thus obtained, the content of cholesterol and triglycerides is determined with the aid of modified commercially available enzyme tests (cholesterol enzymatic 14366 Merck, triglycerides 14364 Merck). […]
100 μl of serum dilution are mixed with 100 μl of test substance in 96-hole plates and incubated at room temperature for 10 minutes. The optical density is then determined at a wavelength of 492 nm using an automatic plate-reading apparatus. The triglyceride or cholesterol concentration contained in the samples is determined with the aid of a standard curve measured in parallel. […]

SMILES | IC50 [1] [nM] | ED50 (ex vivo activity) (CETP) [mg/kg] | % Inhibition at 10 mg/kg (CETP) [%] | HDL (percentage change compared with the starting value) [2] | LDL (percentage change compared with the starting value) [2] | Triglycerides (percentage change compared with the starting value) [2] [%] | % HDL rise [3] [%]
OC1CCN(Cc2ccccc2)c2nc(C3CCCC3)c(Cc3ccc(C(F)(F)F)cc3)c(-c3ccc(F)cc3)c21 (centres unmarked) [Example 16] | 850 |  |  |  |  |  | 
CC1CC(O)c2c(nc(C3CCCC3)c(C(O)c3ccc(C(F)(F)F)cc3)c2-c2ccc(F)cc2)N1Cc1ccccc1 (single isomer, unassigned) [Example 21] |  | > 10 | 34.4 |  |  |  | 
O=S1(=O)Cc2nc(C3CCCC3)c(C(O)c3ccc(C(F)(F)F)cc3)c(-c3ccc(F)cc3)c2C(O)C1 (centres unmarked) [Example 14] | 6000 |  |  |  |  |  | 
CC1CC(O)c2c(nc(C3CCCC3)c(Cc3ccc(C(F)(F)F)cc3)c2-c2ccc(F)cc2)N1Cc1ccccc1 (centres unmarked) [Example 20] |  | > 10 | 50.4 | +14.5% | +6.7% | -24.5 | 9.21
OC1CSCc2nc(C3CCCC3)c(C(F)c3ccc(C(F)(F)F)cc3)c(-c3ccc(F)cc3)c21 (centres unmarked) [Example 12] | 200 | < 10 | 49.5 |  |  |  | 12.37

Reference: patent US5932587A, “Heterocyclic-fused pyridines” (Bayer Aktiengesellschaft, priority 1996, dated 1999)
